In US6054435A, “6-O-substituted macrolides having antibacterial activity” (priority 1999, dated 2000):
≈ marks a conversion by molar mass, not a printed value.

Tests used:
Test in all cases: in vitro antibacterial activity (MIC), agar dilution
Format in all cases: cell-based
[1] = tested on: Mycobacterium smegmatis ATCC 114; conditions: organism code UU; BHI agar, 35-37° C., 20 to 24 hours; unit assumed
Procedure, shortened: (§1)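 Agar dilution on BHI agar with twelve successive compound dilutions; plates inoculated by Steers replicator with 1:100 culture dilutions (1:10 for slow growers such as Streptococcus). MIC is the lowest concentration giving no growth, slight haze or sparse colonies versus a drug-free control.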

[2] = tested on: Streptococcus agalactiae CMX 508; conditions: organism code KK; BHI agar, 35-37° C., 20 to 24 hours; unit assumed
Procedure, shortened: as §1

[3] = tested on: Enterococcus faecium ATCC 8043; conditions: organism code II; BHI agar, 35-37° C., 20 to 24 hours; unit assumed
Procedure, shortened: as §1

[4] = tested on: Streptococcus pyogenes PIU 2548; conditions: organism code NN; BHI agar, 35-37° C., 20 to 24 hours; unit assumed
Procedure, shortened: as §1

[5] = tested on: Nocardia Asteroides ATCC9970; conditions: organism code VV; BHI agar, 35-37° C., 20 to 24 hours; unit assumed
Procedure, shortened: as §1

[6] = tested on: Staphylococcus aureus ATCC 6538P; conditions: organism code AA; BHI agar, 35-37° C., 20 to 24 hours; unit assumed
Procedure, shortened: as §1

[7] = tested on: Staphylococcus aureus A-5278; conditions: organism code CC; BHI agar, 35-37° C., 20 to 24 hours; unit assumed
Procedure, shortened: as §1

[8] = tested on: Escherichia coli SS; conditions: organism code RR; BHI agar, 35-37° C., 20 to 24 hours; unit assumed
Procedure, shortened: as §1

[9] = tested on: Staphylococcus aureus 1775; conditions: organism code GG; BHI agar, 35-37° C., 20 to 24 hours; unit assumed
Procedure, shortened: as §1

[10] = tested on: Micrococcus luteus ATCC 4698; conditions: organism code PP; BHI agar, 35-37° C., 20 to 24 hours; unit assumed
Procedure, shortened: (§2)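 Test compound serially diluted in Brain Heart Infusion agar across twelve plates; inocula of 1:100 dilution (1:10 for slow growers such as Streptococcus) applied by Steers replicator. MIC taken visually as lowest concentration giving no growth, slight haze or sparse isolated colonies versus drug-free growth control.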

[11] = tested on: Streptococcus Pneumonia 5649; conditions: organism code ZZA; BHI agar, 35-37° C., 20 to 24 hours; unit assumed
Procedure, shortened: as §1

[12] = tested on: Haemophilis Influenzae DILL AMP R; conditions: organism code WW; BHI agar, 35-37° C., 20 to 24 hours; unit assumed
Procedure, shortened: as §1

[13] = tested on: Escherichia coli JUHL; conditions: organism code QQ; BHI agar, 35-37° C., 20 to 24 hours; unit assumed
Procedure, shortened: as §1

[14] = tested on: Streptococcus bovis A-5169; conditions: organism code JJ; BHI agar, 35-37° C., 20 to 24 hours; unit assumed
Procedure, shortened: as §1

[15] = tested on: Staphylococcus aureus CMX 553; conditions: organism code FF; BHI agar, 35-37° C., 20 to 24 hours; unit assumed
Procedure, shortened: as §1

[16] = tested on: Streptococcus Pneumonia GYR 1171; conditions: organism code YY; BHI agar, 35-37° C., 20 to 24 hours; unit assumed
Procedure, shortened: as §1

[17] = tested on: Streptococcus pyogenes EES61; conditions: organism code LL; BHI agar, 35-37° C., 20 to 24 hours; unit assumed
Procedure, shortened: as §1

[18] = tested on: Streptococcus Pneumonia ATCC6303; conditions: organism code XX; BHI agar, 35-37° C., 20 to 24 hours; unit assumed
Procedure, shortened: as §1

[19] = tested on: Streptococcus pyogenes 930; conditions: organism code MM; BHI agar, 35-37° C., 20 to 24 hours; unit assumed
Procedure, shortened: as §1

[20] = tested on: Escherichia coli DC-2; conditions: organism code SS; BHI agar, 35-37° C., 20 to 24 hours; unit assumed
Procedure, shortened: as §1

[21] = tested on: Streptococcus Pneumonia 5979; conditions: organism code ZZ; BHI agar, 35-37° C., 20 to 24 hours; unit assumed
Procedure, shortened: as §1

[22] = tested on: Staphylococcus aureus CMX 642A; conditions: organism code DD; BHI agar, 35-37° C., 20 to 24 hours; unit assumed
Procedure, shortened: as §1

[23] = tested on: Staphylococcus epidermidis 3519; conditions: organism code HH; BHI agar, 35-37° C., 20 to 24 hours; unit assumed
Procedure, shortened: as §1

[24] = tested on: Staphylococcus aureus NCTC10649M; conditions: organism code EE; BHI agar, 35-37° C., 20 to 24 hours; unit assumed
Procedure, shortened: as §1

[25] = tested on: Micrococcus luteus ATCC 9341; conditions: organism code OO; BHI agar, 35-37° C., 20 to 24 hours; unit assumed
Procedure, shortened: as §2

[26] = tested on: Candida albicans CCH 442; conditions: organism code TT; BHI agar, 35-37° C., 20 to 24 hours; unit assumed
Procedure, shortened: as §1

[27] = tested on: Staphylococcus aureus A5177; conditions: organism code BB; BHI agar, 35-37° C., 20 to 24 hours; unit assumed
Procedure, shortened: as §1

Row | Structure (SMILES) | MIC [1] [µg/mL] | MIC [2] [µg/mL] | MIC [3] [µg/mL] | MIC [4] [µg/mL] | MIC [5] [µg/mL] | MIC [6] [µg/mL] | MIC [7] [µg/mL] | MIC [8] [µg/mL] | MIC [9] [µg/mL] | MIC [10] [µg/mL] | MIC [11] [µg/mL] | MIC [12] [µg/mL] | MIC [13] [µg/mL] | MIC [14] [µg/mL] | MIC [15] [µg/mL] | MIC [16] [µg/mL] | MIC [17] [µg/mL] | MIC [18] [µg/mL] | MIC [19] [µg/mL] | MIC [20] [µg/mL] | other results
1 | CC[C@H]1OC(=O)[C@H](C)C(=O)[C@H](C)[C@@H](O[C@@H]2O[C@H](C)C[C@H](N(C)C)[C@H]2O)[C@](C)(OC/C=C/c2ccc3ncc(Br)cc3c2)C[C@@H](C)C(=O)[C@H](C)[C@H]2NC(=O)O[C@@]21C [Example 38] | 0.39 (≈ 0.462 µM) | 0.02 (≈ 0.0237 µM) | 0.05 (≈ 0.0592 µM) | 0.2 (≈ 0.237 µM) | 0.05 (≈ 0.0592 µM) | 0.2 (≈ 0.237 µM) | 100 (≈ 118 µM) | 0.78 (≈ 0.923 µM) | 100 (≈ 118 µM) | 0.2 (≈ 0.237 µM) | 0.25 (≈ 0.296 µM) | 2 (≈ 2.37 µM) | 100 (≈ 118 µM) | ≤ 0.005 | 0.2 (≈ 0.237 µM) | 0.03 (≈ 0.0355 µM) | 0.02 (≈ 0.0237 µM) | 0.03 (≈ 0.0355 µM) | 3.1 (≈ 3.67 µM) | > 100 | MIC [21]: 2 µg/mL (≈ 2.37 µM); MIC [22]: 0.2 µg/mL (≈ 0.237 µM); MIC [23]: 0.2 µg/mL (≈ 0.237 µM); MIC [24]: 0.2 µg/mL (≈ 0.237 µM); MIC [25]: 0.05 µg/mL (≈ 0.0592 µM); MIC [26]: > 100 µg/mL; MIC [27]: 0.2 µg/mL (≈ 0.237 µM)
2 | CC[C@H]1OC(=O)[C@H](C)C(=O)[C@H](C)[C@@H](O[C@@H]2O[C@H](C)C[C@H](N(C)C)[C@H]2O)[C@](C)(OC/C=C/c2ncc(-c3cccnc3)s2)C[C@@H](C)C(=O)[C@H](C)[C@H]2NC(=O)O[C@@]21C [Example 54] | 3.1 (≈ 3.88 µM) | ≤ 0.005 | 0.02 (≈ 0.025 µM) | 0.1 (≈ 0.125 µM) | 0.01 (≈ 0.0125 µM) | 0.05 (≈ 0.0626 µM) | > 100 | 0.2 (≈ 0.25 µM) | > 100 | 0.05 (≈ 0.0626 µM) | 0.25 (≈ 0.313 µM) | 2 (≈ 2.5 µM) | 1.56 (≈ 1.95 µM) | ≤ 0.005 | 0.05 (≈ 0.0626 µM) | 0.03 (≈ 0.0375 µM) | ≤ 0.005 | 0.03 (≈ 0.0375 µM) | 100 (≈ 125 µM) | 25 (≈ 31.3 µM) | MIC [21]: 4 µg/mL (≈ 5.01 µM); MIC [22]: 0.05 µg/mL (≈ 0.0626 µM); MIC [23]: 0.05 µg/mL (≈ 0.0626 µM); MIC [24]: 0.1 µg/mL (≈ 0.125 µM); MIC [25]: 0.01 µg/mL (≈ 0.0125 µM); MIC [26]: > 100 µg/mL; MIC [27]: 0.05 µg/mL (≈ 0.0626 µM)
3 | CC[C@H]1OC(=O)[C@H](C)C(=O)[C@H](C)[C@@H](O[C@@H]2O[C@H](C)C[C@H](N(C)C)[C@H]2O)[C@](C)(OCC#Cc2ccc(-c3ccco3)s2)C[C@@H](C)C(=O)[C@H](C)[C@H]2NC(=O)O[C@@]21C [Example 23] | 0.78 (≈ 0.994 µM) | ≤ 0.005 | 0.02 (≈ 0.0255 µM) | 0.1 (≈ 0.127 µM) | 0.02 (≈ 0.0255 µM) | 0.05 (≈ 0.0637 µM) | > 100 | 0.39 (≈ 0.497 µM) | > 100 | 0.05 (≈ 0.0637 µM) | 0.25 (≈ 0.318 µM) | 2 (≈ 2.55 µM) | 50 (≈ 63.7 µM) | 0.01 (≈ 0.0127 µM) | 0.05 (≈ 0.0637 µM) | 0.03 (≈ 0.0382 µM) | 0.1 (≈ 0.127 µM) | 0.03 (≈ 0.0382 µM) | 6.2 (≈ 7.9 µM) | 50 (≈ 63.7 µM) | MIC [21]: 8 µg/mL (≈ 10.2 µM); MIC [22]: 0.05 µg/mL (≈ 0.0637 µM); MIC [23]: 0.05 µg/mL (≈ 0.0637 µM); MIC [24]: 0.05 µg/mL (≈ 0.0637 µM); MIC [25]: 0.01 µg/mL (≈ 0.0127 µM); MIC [26]: > 100 µg/mL; MIC [27]: 0.05 µg/mL (≈ 0.0637 µM)
